Laboratory results as given in publication PMC12756739 (ACS Omega, 2025).

Key:
[1] = tested on: A549 cell line; assay: MTT cytotoxicity test, A549 cell line; format: cell-based; details: Homo sapiens, A549, read-out: IC50 (μM) A549
[2] = tested on: MCF-7 cell line; assay: MTT cytotoxicity test, MCF-7 cell line; format: cell-based; details: Homo sapiens, MCF7, read-out: IC50 (μM) MCF-7
[3] = tested on: NIH3T3 cells; assay: MTT cytotoxicity test, NIH3T3 cell line; format: cell-based; details: Mus musculus, NIH3T3, read-out: IC50 (μM) NIH3T3
[4] = biological target: T1, COX-2 enzyme (Homo sapiens, UniProt P35354); assay: biochemical
T1 sequence (P35354 18-604): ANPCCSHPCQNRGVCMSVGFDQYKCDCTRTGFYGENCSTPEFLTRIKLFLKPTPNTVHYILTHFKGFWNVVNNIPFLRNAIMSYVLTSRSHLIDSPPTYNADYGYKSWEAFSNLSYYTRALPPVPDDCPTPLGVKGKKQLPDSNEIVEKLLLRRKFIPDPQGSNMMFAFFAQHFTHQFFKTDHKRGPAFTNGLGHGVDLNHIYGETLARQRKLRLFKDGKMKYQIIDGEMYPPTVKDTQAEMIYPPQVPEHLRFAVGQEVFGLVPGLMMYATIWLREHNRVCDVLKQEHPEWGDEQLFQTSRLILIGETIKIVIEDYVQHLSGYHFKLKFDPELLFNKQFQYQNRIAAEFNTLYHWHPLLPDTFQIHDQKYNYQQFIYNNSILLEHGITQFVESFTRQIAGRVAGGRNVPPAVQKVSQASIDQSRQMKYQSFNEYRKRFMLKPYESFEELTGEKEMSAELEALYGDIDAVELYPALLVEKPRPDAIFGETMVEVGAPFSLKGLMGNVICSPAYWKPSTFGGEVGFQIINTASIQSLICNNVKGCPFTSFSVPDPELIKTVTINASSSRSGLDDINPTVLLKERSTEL

[5] = tested on: carbonic anhydrase IX (CA IX); details: ref Fadaly et al.; cited from earlier work
[6] = tested on: carbonic anhydrase XII (CA XII); details: ref Fadaly et al.; cited from earlier work
[7] = tested on: topoisomerase II; details: ref Ewieda et al.; cited from earlier work
[8] = tested on: CDK2; details: ref Abdalla et al.; cited from earlier work
[9] = tested on: CDK6; details: ref Abdalla et al.; cited from earlier work
[10] = tested on: CDK12; details: ref Abdalla et al.; cited from earlier work

IC50 [4] [µM] | Compound | IC50 [1] [µM] | IC50 [2] [µM] | IC50 [3] [µM] | also measured
> 1000 | O=C(CSc1nnc(NC(=O)c2ccc(F)cc2)s1)Nc1ccccc1 [3k, 4-Fluoro-N-(5-((2-oxo-2-(phenylamino)ethyl)thio)-1,3,4-thiadiazol-2-yl)benzamide] | 69.1 ± 2.8 | > 100 | > 100 | 
> 100 | COc1ccc(C(=O)Nc2nnc(SCC(=O)Nc3ccc(Cl)cc3)s2)cc1 [3t, 4-Methoxy-N-(5-((2-oxo-2-((4-chlorophenyl)amino)ethyl)thio)-1,3,4-thiadiazol-2-yl)benzamide] | > 100 | > 100 | > 100 | 
3.78 ± 0.177 | O=C(CSc1nnc(NC(=O)c2ccc(Cl)cc2)s1)Nc1ccc(Cl)cc1 [3i, 4-Chloro-N-(5-((2-((4-chlorophenyl)amino)-2-oxoethyl)thio)-1,3,4-thiadiazol-2-yl)benzamide] | > 100 | 12.1 ± 0.589 | 24.9 ± 1.18 | 
0.721 ± 0.03 | O=C(CSc1nnc(NC(=O)c2ccc(F)cc2)s1)Nc1ccc(Cl)cc1 [3n, 4-Fluoro-N-(5-((2-((4-chlorophenyl)amino)-2-oxoethyl)thio)-1,3,4-thiadiazol-2-yl)benzamide] | > 100 | > 100 | > 100 | 

Continued, compound first:

Compound | IC50 [4] [µM] | IC50 [1] [µM] | IC50 [2] [µM] | IC50 [3] [µM] | also measured
COc1ccc(-c2csc(N3N=C(c4nnn(-c5ccc(S(N)(=O)=O)cc5)c4C)CC3c3ccc(OC)cc3)n2)cc1 (centres unmarked) [4-(4-(5-(4-methoxyphenyl)-1-(4-(4-methoxyphenyl)thiazol-2-yl)-4,5-dihydro-1H-pyrazol-3-yl)-5-methyl-1H-1,2,3-triazol-1-yl)benzenesulfonamide] |  |  |  |  | activity against CA IX [5]: 0.025 µM; activity against CA XII [6]: 0.031 µM
Br.CCOC(=O)C1=C(c2ccccc2)N=C2SC=C(c3ccc(C)cc3)N2C1c1ccc(Br)cc1 (centres unmarked) [Ethyl 5-(4-bromophenyl)-3-(4-methylphenyl)-7-phenyl-5H-thiazolo[3,2-a]pyrimidine-6-carboxylate hydrobromide] |  |  |  |  | activity against topoisomerase [7]: 0.94 µM
O=C(CSc1nnc(NC(=O)c2ccc(Cl)c(Cl)c2)s1)Nc1ccc(Cl)cc1 [3d, 3,4-Dichloro-N-(5-((2-((4-chlorophenyl)amino)-2-oxoethyl)thio)-1,3,4-thiadiazol-2-yl)benzamide] | 6.72 ± 0.312 | > 100 | > 100 | > 100 | 
O=C(CSc1nnc(NC(=O)c2ccc(Cl)c(Cl)c2)s1)Nc1ccc(C(F)(F)F)cc1 [3b, 3,4-Dichloro-N-(5-((2-oxo-2-((4-(trifluoromethyl)phenyl)amino)ethyl)thio)-1,3,4-thiadiazol-2-yl)benzamide] | > 1000 | 46.5 ± 1.45 | > 100 | 67.1 ± 2.37 | 
NS(=O)(=O)c1ccc(NC(=O)CSc2nnc(NC(=O)c3ccc(Cl)c(Cl)c3)s2)cc1 [3e, 3,4-Dichloro-N-(5-((2-oxo-2-((4-sulfamoylphenyl)amino)ethyl)thio)-1,3,4-thiadiazol-2-yl)benzamide] | 0.32 ± 0.014 | > 100 | 11 ± 0.402 | 70.8 ± 2.5 | 
COc1ccc(C(=O)Nc2nnc(SCC(=O)Nc3ccc(C(F)(F)F)cc3)s2)cc1 [3r, 4-Methoxy-N-(5-((2-oxo-2-((4-(trifluoromethyl)phenyl)amino)ethyl)thio)-1,3,4-thiadiazol-2-yl)benzamide] | > 100 | > 100 | 43.1 ± 2.06 | 47.6 ± 1.77 | 
Nc1ccccc1C(=O)O [Anthranilic acid] |  |  |  |  | activity against CDK2 [8]: 0.67 µM; activity against CDK6 [9]: 0.48 µM; activity against CDK12 [10]: 0.82 µM
